Data on two compounds can be found in ChEMBL document CHEMBL5038598, “Design and Synthesis of Pyrrolo[2,3-d]pyrimidine-Derived Leucine-Rich Repeat Kinase 2 (LRRK2) Inhibitors Using a Checkpoint Kinase 1 (CHK1)-Derived Crystallographic Surrogate” (J Med Chem, 2021).

pIC50, pKd: −log10 of the molar value.

Data set [1] in a line: Ratio of drug level in Mdr1A deficient C57BL/6 mouse brain to plasma at 5 mg/kg, sc and measured after 0.5 hrs. The data set is classed as ADME, organism-based.
Data set [2] is described as follows: Drug uptake in P-gp la-deficient C57BL/6 mouse brain at 5 mg/kg, sc and measured after 0.5 hrs. The data set is classed as ADME, organism-based. To be noted: read-out: Drug uptake.
Data set [3] in a line: Ratio of unbound drug level in Md1a/1b BCRP knockout C57BL/6 mouse brain to plasma at 5 mg/kg, sc and measured after 0.5 hrs. The data set is classed as ADME, organism-based. The note with it: in vivo.
The test system of data set [4] is BCRP (human). Description: Apparent permeability in MDCK cells expressing human BCRP. To be noted: dog. The data set is classed as ADME, cell-based, Canis lupus familiaris.
Data set [5] can be described thus: Ratio of unbound drug level in Md1a deficient C57BL/6 mouse brain to plasma at 5 mg/kg, sc and measured after 0.5 hrs. The data set is classed as ADME, organism-based.
Data set [6] is described as follows: Ratio of unbound drug level in C57BL/6 WT mouse brain to plasma at 5 mg/kg, sc and measured after 0.5 hrs. To be noted: C57BL/6, mouse. The data set is classed as ADME, organism-based.
Data set [7] relates to Receptor-type tyrosine-protein kinase FLT3 (Homo sapiens), P36888 [UNDEFINED MUTATION]. In words: Inhibition of human FLT3 ITD, D835V (V592/Y969) mutant expressed in bacterial system assessed as remaining activity measured at 1 uM by DiscoveRx KINOMEscan assay relative to control; values are per cent of control.
Data set [8] deals with Leucine-rich repeat serine/threonine-protein kinase 2 (Mus musculus, UniProt Q5S006). Description: Inhibition of LRRK2-WT-pSER935 in C57BL/6 mouse brain at 10 to 150 mg/kg and measured after 1 hrs by western blotting. It is filed as organism-based.
Data set [9] in a line: Drug uptake in Mdr1a/ 1b-BCRP knockout C57BL/6 mouse brain at 5 mg/kg, sc and measured after 0.5 hrs. It is filed as ADME, organism-based. To be noted: read-out: Drug uptake.
The nature of data set [10]: Drug uptake in mdrla-deficient C57BL/6 mouse plasma at 5 mg/kg, sc and measured after 0.5 hrs. The data set is classed as ADME, organism-based.
Data set [11] deals with Phosphatidylinositol 4-kinase beta (Homo sapiens, UniProt Q9UBF8). In words: Inhibition of PI4KB expressed in human PBMCs measured at 10 uM by KiNativ profiling analysis relative to control.
Data set [12] deals with P-glycoprotein (human). In words: Efflux ratio of permeability across basolateral to apical side over apical to basolateral side in MDCK-MDR1 cells expressing human P-glycoprotein. The note with it: dog.
The nature of data set [13]: Volume of distribution in steady state in Beagle dog plasma at 1 mg/kg, IV […]. It is filed as ADME, organism-based, Canis lupus familiaris. The note with it: read-out: Vdss.
Data set [14] can be described thus: Ratio of drug level in Md1a/1b C57BL/6 mouse brain to plasma at 5 mg/kg, sc and measured after 0.5 hrs. It is filed as ADME, organism-based.
Data set [15] has as its target Leucine-rich repeat serine/threonine-protein kinase 2 (Homo sapiens, UniProt Q5S007, G2019S). Description: Binding affinity to human LRRK2 (H970/E2527) G2019S mutant expressed in mammalian system assessed as dissociation constant measured at 1 uM by DiscoveRx KINOMEscan assay.
Data set [16] has as its target Leucine-rich repeat serine/threonine-protein kinase 2 (Homo sapiens, UniProt Q5S007). In words: Binding affinity to human LRRK2 WT expressed in mammalian system assessed as dissociation constant measured at 1 uM by DiscoveRx KINOMEscan assay.
Data set [17] in a line: Drug uptake in C57BL/6 WT mouse brain at 5 mg/kg, sc and measured after 0.5 hrs. The note with it: C57BL/6, mouse, read-out: Drug uptake. It is filed as ADME, organism-based.
The nature of data set [18]: Drug uptake in Mdr1a deficient C57BL/6 mouse plasma at 5 mg/kg, sc and measured after 1 hrs. It is filed as ADME, organism-based.
Data set [19] in a line: Ratio of unbound drug level in C57BL/6 WT mouse brain to plasma measured at 5 mg/kg, sc and measured after 1 hrs. The data set is classed as ADME, organism-based. The note with it: C57BL/6, mouse.
Data set [20] in a line: Ratio of drug level in C57BL/6 WT mouse brain to plasma at 5 mg/kg, sc and measured after 1 hrs. The data set is classed as ADME, organism-based. To be noted: C57BL/6, mouse.
A short description of data set [21]: Drug uptake in C57BL/6 WT mouse plasma at 5 mg/kg, sc and measured after 1 hrs. It is filed as ADME, organism-based. The note with it: C57BL/6, mouse.
A short description of data set [22]: Ratio of drug level in Mdr1A deficient C57BL/6 mouse brain to plasma at 5 mg/kg, sc and measured after 1 hrs. The data set is classed as ADME, organism-based.
Data set [23] is described as follows: Drug uptake in C57BL/6 WT mouse brain at 5 mg/kg, sc and measured after 1 hrs. The data set is classed as ADME, organism-based. The note with it: C57BL/6, mouse, read-out: Drug uptake.
Data set [24] can be described thus: Drug uptake in C57BL/6 WT mouse plasma at 5 mg/kg, sc and measured after 0.5 hrs. It is filed as ADME, organism-based. The note with it: C57BL/6, mouse.
A short description of data set [25]: Drug uptake in Mdr1a deficient C57BL/6 mouse brain at 5 mg/kg, sc and measured after 1 hrs. It is filed as ADME, organism-based. To be noted: read-out: Drug uptake.
A short description of data set [26]: Ratio of unbound drug level in Md1a deficient C57BL/6 mouse brain to plasma at 5 mg/kg, sc and measured after 1 hrs. The data set is classed as ADME, organism-based.

Receptor-type tyrosine-protein kinase FLT3 (Homo sapiens), P36888 [UNDEFINED MUTATION], sequence (P36888 whole entry, looked up, stated change not applied): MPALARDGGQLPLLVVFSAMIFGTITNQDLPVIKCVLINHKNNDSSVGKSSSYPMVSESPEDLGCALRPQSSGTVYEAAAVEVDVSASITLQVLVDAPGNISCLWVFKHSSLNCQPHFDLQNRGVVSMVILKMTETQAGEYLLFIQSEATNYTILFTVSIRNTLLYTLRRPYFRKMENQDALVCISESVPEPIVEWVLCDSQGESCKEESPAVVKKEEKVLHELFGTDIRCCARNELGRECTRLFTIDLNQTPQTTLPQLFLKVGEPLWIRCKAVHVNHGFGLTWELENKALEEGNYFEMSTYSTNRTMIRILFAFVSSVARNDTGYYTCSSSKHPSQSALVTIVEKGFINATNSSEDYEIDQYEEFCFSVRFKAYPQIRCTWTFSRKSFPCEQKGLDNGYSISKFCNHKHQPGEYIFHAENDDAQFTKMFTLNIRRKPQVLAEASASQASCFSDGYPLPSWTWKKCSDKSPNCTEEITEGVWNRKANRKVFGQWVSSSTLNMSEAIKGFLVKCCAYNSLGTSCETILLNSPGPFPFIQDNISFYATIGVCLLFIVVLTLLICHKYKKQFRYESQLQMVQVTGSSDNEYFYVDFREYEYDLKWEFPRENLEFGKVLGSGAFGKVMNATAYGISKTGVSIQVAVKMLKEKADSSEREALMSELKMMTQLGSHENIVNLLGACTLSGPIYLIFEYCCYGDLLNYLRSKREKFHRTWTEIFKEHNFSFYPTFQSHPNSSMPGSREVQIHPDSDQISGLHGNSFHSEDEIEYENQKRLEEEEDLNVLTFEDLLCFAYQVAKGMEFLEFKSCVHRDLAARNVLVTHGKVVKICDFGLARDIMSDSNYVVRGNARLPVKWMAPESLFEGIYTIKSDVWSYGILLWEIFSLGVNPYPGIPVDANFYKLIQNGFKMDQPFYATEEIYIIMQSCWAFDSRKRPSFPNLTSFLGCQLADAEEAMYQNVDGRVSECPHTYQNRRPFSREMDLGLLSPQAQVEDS
Phosphatidylinositol 4-kinase beta, sequence (Q9UBF8 2-816 limits assumed): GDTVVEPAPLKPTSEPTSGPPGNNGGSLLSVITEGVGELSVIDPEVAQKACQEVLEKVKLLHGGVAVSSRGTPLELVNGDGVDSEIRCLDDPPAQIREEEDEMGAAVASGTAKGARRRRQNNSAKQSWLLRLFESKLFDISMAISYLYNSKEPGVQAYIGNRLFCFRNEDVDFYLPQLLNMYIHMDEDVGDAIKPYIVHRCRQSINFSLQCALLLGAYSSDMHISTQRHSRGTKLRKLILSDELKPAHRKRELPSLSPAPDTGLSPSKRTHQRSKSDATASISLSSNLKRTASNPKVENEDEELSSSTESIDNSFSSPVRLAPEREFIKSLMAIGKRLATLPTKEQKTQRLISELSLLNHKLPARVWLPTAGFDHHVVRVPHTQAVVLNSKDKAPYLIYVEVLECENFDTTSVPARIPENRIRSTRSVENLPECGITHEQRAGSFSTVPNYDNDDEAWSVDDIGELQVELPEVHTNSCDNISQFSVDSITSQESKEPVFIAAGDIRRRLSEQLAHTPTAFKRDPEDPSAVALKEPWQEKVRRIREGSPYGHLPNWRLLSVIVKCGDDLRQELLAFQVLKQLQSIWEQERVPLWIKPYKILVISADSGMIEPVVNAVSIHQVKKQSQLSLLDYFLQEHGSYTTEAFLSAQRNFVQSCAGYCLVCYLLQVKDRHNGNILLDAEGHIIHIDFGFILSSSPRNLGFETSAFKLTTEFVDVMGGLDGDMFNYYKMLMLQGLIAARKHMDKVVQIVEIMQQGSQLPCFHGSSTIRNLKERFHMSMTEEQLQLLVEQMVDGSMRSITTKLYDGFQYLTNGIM
Leucine-rich repeat serine/threonine-protein kinase 2 (Homo sapiens, UniProt Q5S007, G2019S), sequence (Q5S007 whole entry G2019S): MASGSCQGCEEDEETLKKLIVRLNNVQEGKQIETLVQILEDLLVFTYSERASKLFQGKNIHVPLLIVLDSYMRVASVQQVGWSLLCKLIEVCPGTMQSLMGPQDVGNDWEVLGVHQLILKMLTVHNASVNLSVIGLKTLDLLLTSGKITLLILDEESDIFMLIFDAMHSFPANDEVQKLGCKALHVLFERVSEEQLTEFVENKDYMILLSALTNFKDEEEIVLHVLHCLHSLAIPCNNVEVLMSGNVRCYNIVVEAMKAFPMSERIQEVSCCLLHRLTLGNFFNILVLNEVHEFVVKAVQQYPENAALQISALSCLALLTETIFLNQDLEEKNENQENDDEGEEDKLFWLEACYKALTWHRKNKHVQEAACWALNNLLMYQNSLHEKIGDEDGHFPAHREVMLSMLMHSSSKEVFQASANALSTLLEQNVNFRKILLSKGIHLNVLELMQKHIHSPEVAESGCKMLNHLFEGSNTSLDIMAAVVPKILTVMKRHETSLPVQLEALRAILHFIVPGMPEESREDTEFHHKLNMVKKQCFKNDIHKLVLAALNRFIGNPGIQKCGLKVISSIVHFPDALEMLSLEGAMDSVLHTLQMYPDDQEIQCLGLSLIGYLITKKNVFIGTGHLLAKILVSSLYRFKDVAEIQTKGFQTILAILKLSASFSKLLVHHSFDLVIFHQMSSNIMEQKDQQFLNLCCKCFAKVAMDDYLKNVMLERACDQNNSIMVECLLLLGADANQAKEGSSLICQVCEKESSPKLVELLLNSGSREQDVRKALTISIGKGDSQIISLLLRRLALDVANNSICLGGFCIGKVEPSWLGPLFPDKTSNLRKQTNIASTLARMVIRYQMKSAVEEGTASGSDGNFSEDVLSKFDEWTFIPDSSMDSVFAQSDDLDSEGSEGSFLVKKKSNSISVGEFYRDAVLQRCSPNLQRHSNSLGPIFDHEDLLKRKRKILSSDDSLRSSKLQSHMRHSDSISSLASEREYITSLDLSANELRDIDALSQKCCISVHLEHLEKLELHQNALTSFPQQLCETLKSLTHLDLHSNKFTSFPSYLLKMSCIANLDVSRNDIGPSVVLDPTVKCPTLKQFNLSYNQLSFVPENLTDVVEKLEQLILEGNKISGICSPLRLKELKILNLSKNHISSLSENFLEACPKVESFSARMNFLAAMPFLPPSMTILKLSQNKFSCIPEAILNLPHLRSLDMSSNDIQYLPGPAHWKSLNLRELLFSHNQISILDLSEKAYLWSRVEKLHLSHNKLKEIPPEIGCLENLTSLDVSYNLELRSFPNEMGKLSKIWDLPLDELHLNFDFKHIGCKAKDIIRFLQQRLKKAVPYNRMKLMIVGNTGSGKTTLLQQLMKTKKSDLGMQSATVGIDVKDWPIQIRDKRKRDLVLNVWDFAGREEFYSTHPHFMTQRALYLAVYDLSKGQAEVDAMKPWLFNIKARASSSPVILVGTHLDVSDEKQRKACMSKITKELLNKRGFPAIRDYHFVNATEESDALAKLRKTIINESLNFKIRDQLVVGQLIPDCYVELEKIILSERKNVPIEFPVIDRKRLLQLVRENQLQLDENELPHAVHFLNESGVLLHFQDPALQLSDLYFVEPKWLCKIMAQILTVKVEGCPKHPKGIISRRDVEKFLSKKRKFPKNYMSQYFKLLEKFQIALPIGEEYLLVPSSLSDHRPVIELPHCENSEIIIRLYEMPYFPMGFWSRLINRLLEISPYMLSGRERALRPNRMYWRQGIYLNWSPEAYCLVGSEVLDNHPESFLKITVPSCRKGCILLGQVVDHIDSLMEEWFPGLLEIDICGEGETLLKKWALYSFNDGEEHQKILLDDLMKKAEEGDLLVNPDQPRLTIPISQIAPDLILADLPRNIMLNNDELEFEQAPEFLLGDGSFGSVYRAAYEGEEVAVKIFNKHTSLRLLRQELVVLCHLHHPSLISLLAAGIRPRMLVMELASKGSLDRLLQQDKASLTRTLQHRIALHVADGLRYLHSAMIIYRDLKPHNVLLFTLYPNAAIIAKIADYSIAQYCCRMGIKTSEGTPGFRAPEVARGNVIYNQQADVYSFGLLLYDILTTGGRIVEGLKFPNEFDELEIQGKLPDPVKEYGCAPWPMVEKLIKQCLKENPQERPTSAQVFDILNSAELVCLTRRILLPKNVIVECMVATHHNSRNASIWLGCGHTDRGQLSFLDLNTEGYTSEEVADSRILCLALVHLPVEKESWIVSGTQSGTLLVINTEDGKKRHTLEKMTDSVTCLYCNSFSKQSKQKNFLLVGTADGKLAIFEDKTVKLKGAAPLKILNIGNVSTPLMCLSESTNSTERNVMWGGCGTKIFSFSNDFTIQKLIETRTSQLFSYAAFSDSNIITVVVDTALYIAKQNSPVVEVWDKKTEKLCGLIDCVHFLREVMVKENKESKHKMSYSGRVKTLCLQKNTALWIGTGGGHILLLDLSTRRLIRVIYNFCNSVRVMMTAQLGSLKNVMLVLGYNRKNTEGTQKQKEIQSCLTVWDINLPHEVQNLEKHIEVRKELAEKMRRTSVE
Leucine-rich repeat serine/threonine-protein kinase 2 (Homo sapiens, UniProt Q5S007), sequence (Q5S007 whole entry): as the sequence (Q5S007 whole entry G2019S) above, with S2019G counted along it

As for `Cc1c(Nc2nc(N)c3c(C#N)c(N4CCC[C@H]4C)n(C)c3n2)cnn1[C@@H]1CCOC1`, the results for the Kp at 0.5 h in data set [1] and in [14] were 0.31 and 1.05, respectively. Further, the concentration at 0.5 h in data set [2] stood at 256 ng/g; in data set [9], 2060 ng/g; in data set [10], 2140 ng/mL. Further, the Ratio in data set [3] worked out at 0.37. Also, the Papp in data set [4] came to 0.7 ×10⁻⁶ cm/s. Also, the results for the Kp uu at 0.5 h in data set [5] and in [6] were 0.11 and 0.02, respectively. For the same compound, the residual activity in [7] is 25%. Besides, the negative logarithm of the IC50 (pIC50) in data set [8] was 7.80. The compound further returned an inhibition in data set [11] of 45%. The efflux ratio in data set [12] came out at 1.2. Also, the Vd in [13] amounted to 1 L/kg. Besides, the pKd in [15] was 8.41; in [16], 8.43.
On to `Cc1c(Nc2nc(N)c3c(C#N)c(N4CCC[C@H]4C)n(C)c3n2)cnn1[C@H]1CCOC1`, for which the concentration at 0.5 h stood at 73 ng/g in [17], 1610 ng/mL in data set [24] and 1080 ng/g in data set [9]. Moreover, the concentration at 1 h was determined as 100 ng/mL in data set [18], 440 ng/mL in [21], 17 ng/g in [23] and 675 ng/g in [25]. Also, the Kp uu at 1 h in [19] came to 0.014; in [26] it was 0.056. Also, the Kp at 1 h in data set [20] came out at 0.04; in data set [22], 0.15. In addition, the Ratio in data set [3] is recorded as 0.24. Also, the Papp in data set [4] was determined as 1.2 ×10⁻⁶ cm/s. In addition, in [6], the Kp uu at 0.5 h came out at 0.02. Besides, the residual activity in data set [7] amounted to 1.9%. Further, the negative logarithm of the IC50 (pIC50) in data set [8] was 7.64. This compound also yielded an inhibition in [11] of 29%. Moreover, the efflux ratio in [12] amounted to 0.9. Further, the Vd in [13] came to 1.8 L/kg. In addition, the Kp at 0.5 h in data set [14] came to 0.65. The pKd in [15] was 8.26; in data set [16], 8.18.
